Converted amounts (≈) assume the structure as drawn. “And” between values parts separate entries of the source, which are not always exact repeats. Equal values may be shown once.
Key:
[1] = Solubility measurements in saline (PBS, LC/MS); type: physicochemical; conditions: for Solubility in saline: Table 3, PBS, DMSO <2%; for solubility in saline / aqueous solubility: values in text, LC/MS
Procedure: Solubility measurements. A saturated compound solution was prepared by addition of DMSO stock to phosphate buffered saline (final DMSO 2%) followed by sonication for 5 min at 25° C. and shaking at room temperature for 1 h. After centrifugation at 15,000 rpm for 1 h, the supernatant was analyzed by LC/MS with concentration determined from area under the curve, standardized against calibration data. A standard curve for each compound was obtained by plotting area under the curve from chromatograms against inhibitor concentration. The concentration range of the standard solutions was 1-15 μM (for 5) and 1-100 μM (other compounds). In all cases, standard curves prepared were linear with r>0.998.
A saturated drug solution of a compound was prepared by addition of the compound in DMSO to phosphate buffered saline (PBS), followed by sonication for 5 min at 25° C. Final concentration of DMSO was <2%. Each saturated solution was centrifuged and filtered. The saturated supernatant solution was diluted and injected into LC/MS. The concentration was determined from area under the curve using a calibration curve.

human wildtype CFTR [2] = molecular target: T1, human wildtype CFTR (Homo sapiens, UniProt P13569); assay: Short-circuit current measurements, apical chloride current in FRT cells; type: cell-based; set-up: expressed in transfected cells; host or cells: FRT (Fisher rat thyroid) cells; conditions: for inhibition of CFTR in short-circuit current analysis (in words): increasing concentration, forskolin-stimulated
T1 sequence (P13569 whole entry): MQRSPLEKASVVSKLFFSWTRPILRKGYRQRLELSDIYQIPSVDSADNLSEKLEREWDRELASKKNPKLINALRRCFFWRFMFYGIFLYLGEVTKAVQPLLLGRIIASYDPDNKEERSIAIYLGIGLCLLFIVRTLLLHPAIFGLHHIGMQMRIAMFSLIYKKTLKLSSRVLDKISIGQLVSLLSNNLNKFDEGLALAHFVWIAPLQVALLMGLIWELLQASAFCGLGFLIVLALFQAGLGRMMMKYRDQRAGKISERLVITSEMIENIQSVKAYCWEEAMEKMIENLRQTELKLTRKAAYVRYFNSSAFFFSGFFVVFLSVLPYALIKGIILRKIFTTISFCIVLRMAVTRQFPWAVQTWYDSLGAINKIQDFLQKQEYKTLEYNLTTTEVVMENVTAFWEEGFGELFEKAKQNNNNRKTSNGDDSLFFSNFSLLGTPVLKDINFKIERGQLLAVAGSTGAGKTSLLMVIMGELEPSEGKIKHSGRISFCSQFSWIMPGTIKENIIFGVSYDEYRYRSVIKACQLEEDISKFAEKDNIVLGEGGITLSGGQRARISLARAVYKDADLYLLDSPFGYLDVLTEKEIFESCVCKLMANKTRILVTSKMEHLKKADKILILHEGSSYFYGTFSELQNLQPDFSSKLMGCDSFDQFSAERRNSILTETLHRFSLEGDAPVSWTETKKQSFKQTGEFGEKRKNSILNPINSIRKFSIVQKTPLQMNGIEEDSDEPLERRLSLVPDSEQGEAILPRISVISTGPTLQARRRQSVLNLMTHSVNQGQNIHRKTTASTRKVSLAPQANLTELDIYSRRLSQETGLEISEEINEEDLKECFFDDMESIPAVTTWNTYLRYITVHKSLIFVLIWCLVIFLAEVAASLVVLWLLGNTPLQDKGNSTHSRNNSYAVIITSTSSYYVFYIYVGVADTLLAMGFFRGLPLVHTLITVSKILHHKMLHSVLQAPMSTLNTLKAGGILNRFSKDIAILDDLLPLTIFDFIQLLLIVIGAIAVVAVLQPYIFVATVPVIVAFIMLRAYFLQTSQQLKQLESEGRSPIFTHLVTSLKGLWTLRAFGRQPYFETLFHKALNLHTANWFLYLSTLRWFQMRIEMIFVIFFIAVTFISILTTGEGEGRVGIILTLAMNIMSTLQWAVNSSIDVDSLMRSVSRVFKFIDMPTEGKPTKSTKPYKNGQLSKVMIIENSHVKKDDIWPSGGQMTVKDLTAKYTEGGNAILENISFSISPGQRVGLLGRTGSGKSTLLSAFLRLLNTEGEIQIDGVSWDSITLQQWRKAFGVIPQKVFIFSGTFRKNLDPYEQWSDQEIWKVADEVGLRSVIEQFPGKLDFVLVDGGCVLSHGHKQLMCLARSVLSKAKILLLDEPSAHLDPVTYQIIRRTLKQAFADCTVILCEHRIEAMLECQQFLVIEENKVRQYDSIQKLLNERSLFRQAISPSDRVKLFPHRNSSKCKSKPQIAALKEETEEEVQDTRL
Procedure: Short-circuit current measurements. FRT cells (stably expressing human wildtype CFTR) were cultured on [sequence] filters with 1 cm^2 surface area (Corning-Costar) to resistance >1,000 Ω·cm^2 as described (see, e.g., Ma et al., J. Clin. Invest. 110:1651-1658 ((2002)); Sonawane et al., FASEB J. 20:130-132 (2006)). Filters were mounted in an Easymount Chamber System (Physiologic Instruments, San Diego). For apical current measurements, the basolateral hemichamber contained (in mM): 130 NaCl, 2.7 KCl, 1.5 KH2PO4, 1 CaCl2, 0.5 MgCl2, 10 Na-HEPES, 10 glucose (pH 7.3). The basolateral membrane was permeabilized with amphotericin B (250 μg/ml) for 30 min. In the apical solution 65 mM NaCl was replaced by sodium gluconate, and CaCl2 was increased to 2 mM. Solutions were bubbled with 95% O2/5% CO2 and maintained at 37° C. Current was recorded using a DVC-1000 voltage-clamp (World Precision Instruments) using Ag/AgCl electrodes and 1 M KCl agar bridges.
CFTR was stimulated by cAMP agonist forskolin and increasing concentration of test compounds was added.

human wildtype CFTR [3] = molecular target: T1, human wildtype CFTR; assay: Fluorescence cell-based assay of CFTR inhibition (YFP iodide influx, FRT cells); set-up: expressed in transfected cells; host or cells: Fisher rat thyroid (FRT) cells; conditions: for CFTR inhibitory activity (in words): structure-activity discussion
Procedure: CFTR inhibition by thiazolidinone derivative compounds was determined by a fluorescence cell-based assay utilizing doubly transfected cells expressing human wild-type CFTR and a yellow fluorescent protein (YFP) iodide sensor, as described (see, e.g., Galietta, et al., J. Physiol. 281:C1734-C1742 (2001)). Fisher rat thyroid (FRT) cells stably expressing wild-type human CFTR and YFP-H148Q were cultured on 96-well black-wall plates as described (see, e.g., Ma, et al., J. Clin. Invest. 110:1651-1658 (2002)). Cells in 96-well plates were washed three times, and then CFTR was activated by incubation for 15 minutes with an activating cocktail containing 10 μM forskolin, 20 μM apigenin, and 100 μM IBMX. Test compounds were added 5 minutes before assay of iodide influx in which cells were exposed to a 100 mM inwardly directed iodide gradient. YFP fluorescence was recorded for 2 seconds before and 12 seconds after creation of the iodide gradient. Initial rates of iodide influx were computed from the time course of decreasing fluorescence after the iodide gradient.
CFTR-facilitated iodide influx following extracellular iodide addition results in quenching of cytoplasmic YFP fluorescence.

MDCK cells [4] = assay: MDCK cell cyst model of polycystic kidney disease; type: cell-based, Canine; conditions: 10 μM
Excerpt: An MDCK cell model of polycystic kidney disease was used to screen CFTR inhibitors of the thiazolidinone and glycine hydrazide classes for reducing cyst formation and expansion. […] Culture of MDCK cells in three-dimensional collagen gels produces a polarized, single-layer, thinned epithelium surrounding a fluid-filled space, apical […] microvilli, a solitary cilium, and apical tight junctions (see, e.g., McAteer et al., Scan Elect Microsc (Pt 3): 1135-1150, 1986; McAteer et al., Scanning Microsc 2: 1739-1763, 1988; and Taide et al., Eur J Clin Invest 26: 506-513, 1996).
Type I MDCK cells (ATCC No. CCL-34) were cultured at 37° C. in a humidified 95% air/5% CO2 atmosphere in a 1:1 mixture of Dulbecco's modified Eagle's medium (DMEM) and Ham's F-12 nutrient medium supplemented with 10% fetal bovine serum (Hyclone), 100 U/mL penicillin and 100 μg/mL streptomycin. To generate cysts, four hundred MDCK cells were suspended in 0.4 ml of ice-cold Minimum Essential Medium containing 2.9 mg/mL collagen (PuRECOL, Inamed Biomaterials, Fremont Calif.), 10 mM HEPES, 27 mM NaHCO3, 100 U/mL penicillin and 100 μg/mL streptomycin (pH 7.4). The cell suspension was plated onto 24-well plates. After gelation, 1.5 mL of MDCK cell medium containing 10 μM forskolin was added to each well and plates were maintained at 37° C. in a 5% CO2 humidified atmosphere.
The compound structures together with their approximate CFTR inhibition potencies (expressed as IC50 values) are provided in FIGS. 3 and 4. Indicated IC50 values for T01-07, T10, T12-14 were reported by Ma et al. (J Clin Invest 110: 1651-1658 (2002)). IC50 values for T08, T11, and T16 were determined by short-circuit analysis performed according to methods described herein. Indicated IC50 values for G01-05, G8-16 were reported by Sonawane et al. (FASEB J. 20: 130-132 (2006); Sonawane et al., Gastroenterology 132:1234-44 (2007)). IC50 values for G06 and G07 were determined by short-circuit current analysis performed according to methods described herein.
Medium containing forskolin and test compounds was changed every 12 h. At day 6, cysts (with diameters >50 μm) and non-cyst cell colonies were counted by phase-contrast light microscopy at 20× magnification (546 nm monochromatic illumination) using a Nikon TE 2000-S inverted microscope. In some experiments, compounds were added to medium in the continued presence of forskolin from day 4 after seeding and the medium containing forskolin and compounds was changed every 12 h for 8 days. Micrographs showing the same cysts in collagen gels (identified by markings on plates) were obtained every 2 days. For determination of cyst growth, cyst diameters were measured using Image J software. At least 10 cysts/well and 3 wells/group were measured for each condition.

[5] = cited references; cited from earlier work
FRT cells = assay: Cytotoxicity measurements, crystal violet staining of FRT cells; type: cell-based, rat; conditions: 48 h; for % Cell viability 20 μM / % Cell viability 50 μM: crystal violet staining
Procedure: Cytotoxicity measurements. FRT cells in confluent monolayers were incubated with compounds for 2 days. Cells were washed 3 times, fixed (cytofix, 30 min) and stained with crystal violet (100 μl, 0.5%, 10 min) using standard procedures. Excess crystal violet was removed by washing, and dye was extracted with Sorenson's buffer (0.1 M sodium citrate, 50% ethanol, pH 4.2). Crystal violet was quantified by measurement of absorbance at 650 nm. The percentage crystal violet staining was determined from test wells measured 8 times, compared to blanks (wells not containing cells) and vehicle-treated cells.
Cytotoxicity analysis was performed for Tetrazolo-172, Oxo-172, α-Me-172 and Pyridine-NO-172 (Compound 17) and compared with CFTRinh-172 (Table 3). […] Crystal violet staining was reduced for Tetrazolo-172 and α-Me-172 at 50 μM.

MDCK cells [6] = assay: MDCK cell cytotoxicity, crystal violet staining; type: cell-based, Canine; conditions: 20 μM, 72 h
Procedure: To test whether inhibition of cyst growth could be related to cytotoxicity, certain compounds were tested for their effects on cell viability, cell proliferation and apoptosis. Crystal violet staining was used to assess compound effects on cytotoxicity (see, e.g., Johnson et al., Clin Cancer Res 11: 6924-6932, 2005). MDCK cells were incubated for 24 h on 96-well plates, and then incubated for 72 h with test compounds at 20 μM. Medium was removed and adherent cells were fixed and stained for 30 min with 0.5% crystal violet in 20% methanol. Plates were washed with distilled water, and the stain was extracted with Sorenson's buffer (0.1 mol/L sodium citrate, pH 4.2, in 50% ethanol) overnight at 4° C., and absorbance measured at 570 nm.

[7] = Table 3, inhibition potency, read-out: IC50
[8] = values in text, forskolin-stimulated CFTR, read-out: IC50 (short-circuit current)
[9] = Table 1, upper part, CFTR inhibitory activity, given as ranges, read-out: IC50
[10] = Table 2 summary table, given as ranges, read-out: IC50
[11] = Table 1, lower parts, given as ranges, read-out: IC50

SMILES	Solubility in saline [1] [µM]	IC50 (human wildtype CFTR [2]; [7]) [µM]	IC50 (human wildtype CFTR [2]; [8])	IC50 (human wildtype CFTR [3]; [9]) [µM]	IC50 (human wildtype CFTR [3]; [10]) [µM]	effect on MDCK cyst enlargement/formation (in words) (MDCK cells [4])	water solubility [5]	% Cell viability 20 μM (FRT cells) [%]	MDCK cell viability (in words) (MDCK cells [6])	CFTR inhibitory activity (in words) (human wildtype CFTR [3])	solubility in saline / aqueous solubility [1] [µM]	inhibition of CFTR in short-circuit current analysis (in words) (human wildtype CFTR [2])	IC50 (human wildtype CFTR [3]; Tables 1 and 2, read-out: IC50 (CFTR inhibition)) [µM]	Crystal violet staining at 50 μM (in words) (FRT cells; 50 μM)	% Cell viability 50 μM (FRT cells; 50 μM) [%]	increase of solubility in saline/water relative to CFTRinh-172 [1] [fold]	reduction of CFTR inhibition potency relative to CFTRinh-172 (human wildtype CFTR [2]; short-circuit current assays) [fold]	IC50 (human wildtype CFTR [3]; [11]) [µM]	water solubility (in words) [1]
O=C(O)c1ccc(/C=C2\SC(=S)N(c3cccc(C(F)(F)F)c3)C2=O)cc1 [Compound 5, (Z)-4-((4-oxo-2-thioxo-3-(3-(trifluoromethyl)phenyl)thiazolidin-5-ylidene)methyl)benzoic acid, reference compound]	17 (≈ 6.96 µg/mL)	0.38 ± 0.04	0.4 µM and 0.25 to 0.5 µM	0.1 to 1	0.1 to 1	inhibited cyst formation, but to a lesser extent	less than 17 μM	86											
O=C1/C(=C/c2cc(Br)c(O)c(Br)c2O)SC(=S)N1c1cccc(C(F)(F)F)c1 [Compound 15, (Z)-5-(3,5-dibromo-2,4-dihydroxybenzylidene)-2-thioxo-3-(3-(trifluoromethyl)phenyl) thiazolidin-4-one]				5 to 10	5 to 10				reduced MDCK cell viability	modest inhibition activity									
O=C1/C(=C/c2cc[n+]([O-])cc2)SC(=S)N1c1cccc(C(F)(F)F)c1 [Compound 17, (Z)-4-((4-oxo-2-thioxo-3-(3-(trifluoromethyl)phenyl)thiazolidin-5-ylidene)methyl)pyridine 1-oxide]		8.7 ± 0.7	9 µM and 7 to 9 µM		5 to 10						264 (≈ 101 µg/mL)	dose dependant inhibition	5 to 10						
Cc1c(N2C(=O)/C(=C/c3ccc(C(=O)O)cc3)SC2=S)cccc1C(F)(F)F [Compound 18, (Z)-4-((3-(2-methyl-3-(trifluoromethyl)phenyl)-4-oxo-2-thioxothiazolidin-5-ylidene)methyl)benzoic acid]		8.2 ± 0.4	8 µM and 8 to 10 µM	5 to 10	5 to 10			89			259 (≈ 110 µg/mL)	dose dependant inhibition		reduced	72				
O=C(O)c1ccc(/C=C2\SC(=O)N(c3cccc(C(F)(F)F)c3)C2=O)cc1 [Compound 47, (Z)-4-((2,4-dioxo-3-(3-(trifluoromethyl)phenyl)thiazolidin-5-ylidene)methyl)benzoic acid]	420 (≈ 165 µg/mL)	1.4 ± 0.2	1 to 2 µM		1 to 2			93				dose dependant inhibition			91	~25	3.6	1 to 2	
O=C(O)c1ccc(NC(=S)C2SC(=S)N(c3cccc(C(F)(F)F)c3)C2=O)cc1O (centres unmarked) [Compound 52, 2-hydroxy-4-(4-oxo-2-thioxo-3-(3-(trifluoromethyl)phenyl)thiazolidine-5-carbothioamido)benzoic acid]					10 to 20					inactive								10 to 20	highly water soluble
